18 molecules from BindingDB's records for patent US20250313563 (The Broad Institute, 2025) can be followed below.

Assay [1] addresses Glycogen synthase kinase-3 beta (Homo sapiens, UniProt P49841). Description: TR-FRET Assay. The essentials:
(§1)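 Enzyme and test compound were first incubated together for 30 minutes in assay buffer. The kinase reaction followed and was stopped with EDTA. The pSer641 signal was read by time-resolved FRET.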

In assay [2] the target is Glycogen synthase kinase-3 alpha (Homo sapiens, UniProt P49840). Nature of the assay: TR-FRET Assay. The method in brief:
as §1

Several values for one entry are separate records, joined by “and”; a condition that tells them apart may be missing. Equal values may be shown once.

The term IC50 denotes the concentration that gives 50% inhibition. High values mean lower potency, low ones higher potency.

Glycogen synthase kinase-3 alpha, sequence (P49840 whole entry): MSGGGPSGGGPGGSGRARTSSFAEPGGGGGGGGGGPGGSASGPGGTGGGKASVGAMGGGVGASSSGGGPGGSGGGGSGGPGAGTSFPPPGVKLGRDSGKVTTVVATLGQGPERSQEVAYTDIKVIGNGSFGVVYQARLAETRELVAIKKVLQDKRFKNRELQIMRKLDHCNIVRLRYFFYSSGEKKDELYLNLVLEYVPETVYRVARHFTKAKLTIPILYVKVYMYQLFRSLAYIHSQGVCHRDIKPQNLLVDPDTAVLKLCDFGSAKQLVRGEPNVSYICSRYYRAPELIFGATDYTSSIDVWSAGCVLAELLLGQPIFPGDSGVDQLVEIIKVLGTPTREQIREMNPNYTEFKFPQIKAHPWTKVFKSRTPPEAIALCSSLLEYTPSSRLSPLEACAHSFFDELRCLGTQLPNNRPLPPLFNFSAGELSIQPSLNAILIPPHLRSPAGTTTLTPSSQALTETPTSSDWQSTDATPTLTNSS
Glycogen synthase kinase-3 beta, sequence (P49841 whole entry): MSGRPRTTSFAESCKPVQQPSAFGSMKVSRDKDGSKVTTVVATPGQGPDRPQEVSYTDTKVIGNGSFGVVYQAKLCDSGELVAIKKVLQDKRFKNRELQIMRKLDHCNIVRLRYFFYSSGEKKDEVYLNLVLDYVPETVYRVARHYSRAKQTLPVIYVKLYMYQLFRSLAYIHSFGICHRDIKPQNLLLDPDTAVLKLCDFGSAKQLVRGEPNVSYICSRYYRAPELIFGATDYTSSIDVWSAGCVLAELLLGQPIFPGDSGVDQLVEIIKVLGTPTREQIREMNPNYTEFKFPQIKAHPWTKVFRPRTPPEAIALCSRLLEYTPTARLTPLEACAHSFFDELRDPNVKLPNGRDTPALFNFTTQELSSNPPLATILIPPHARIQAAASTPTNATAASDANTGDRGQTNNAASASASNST

Regarding `CC[C@@]1(c2cccc(C(F)(F)F)c2)C2=C(CC(C)(C)NC2=O)NC2N=NC(F)=C21` (stereo partly specified) [US20250313563, Compound 957497], the half-maximal inhibitory concentration (IC50) in assay [1] and in assay [2] was greater than 5000 nM throughout.
In the case of `Cn1nc(C(F)(F)F)cc1S(=O)(=O)N1CCC2(CC1)C1=C(N=NC1)NC1=C2C(=O)CC(C)(C)C1` [US20250313563, Compound 947606], the IC50 in assay [1] and in assay [2] was less than 100 nM in each case.
Turning to `CC1(C)CC(=O)C2=C(C1)NC1=C(CN=N1)C21CCN(c2ccncc2)CC1` [US20250313563, Compound 880765], the 50% inhibitory concentration (IC50) in assay [1] and in assay [2] was greater than 5000 nM in each case.
With `CC[C@@]1(c2cccc(S(C)(=O)=O)c2)C2=CN=NC2NC2=C1C(=O)CC(C)(C)C2` (stereo partly specified) [US20250313563, Compound 826719], the IC50 in assay [1] is greater than 5000 nM; in assay [2], 1000 to 5000 nM.
For `Cn1cc(S(=O)(=O)N2CC[C@@]3(C2)C2=C(N=NC2)NC2=C3C(=O)CC(C)(C)C2)cn1` [US20250313563, Compound 951725], the concentration for half-maximal inhibition (IC50) in assay [1] is 1000 to 5000 nM; in assay [2], 100 to 1000 nM.
The like results for `CC[C@]1(c2cccc(C(F)(F)F)c2)C2=C(N=NC2)NC2=C1C(=O)N(Cc1ccccc1)[C@@H]2C` [US20250313563, Compound 930330] were, in that order, 100 to 1000 nM and less than 100 nM.
The corresponding values for `CC[C@@]1(c2cccc(-c3ccnn3C)c2)C2=CN=NC2NC2=C1C(=O)CC(C)(C)C2` (stereo partly specified) [US20250313563, Compound 911993] are 100 to 1000 nM and less than 100 nM.
The like results for `CC[C@]1(c2cccc(-c3cn(C)nc3C)c2)C2=C(CC(C)(C)NC2=O)NC2N=NC(C(F)F)=C21` (stereo partly specified) [US20250313563, Compound 950490] were, in that order, 100 to 1000 nM and 100 to 1000 nM.
Take `CC[C@]1(c2cccc(-c3cnn4c3CCCC4)c2)C2=C(CC(C)(C)NC2=O)NC2N=NC(C)=C21` (stereo partly specified) [US20250313563, Compound 947809]: the IC50 in assay [1] is 1000 to 5000 nM; in assay [2], 100 to 1000 nM.
The corresponding values for `CC1(C)CC(=O)C2=C(C1)NC1=C(CN=N1)[C@]21CO[C@H](C2CC2)C1` [US20250313563, Compound 913184] are 1000 to 5000 nM and 100 to 1000 nM.
The like results for `CCC1(c2cccc(-c3ccnc4c3CCC4)c2)C2=CN=NC2NC2=C1C(=O)CC(C)(C)C2` (stereo unspecified) [US20250313563, Compound 943534] were, in that order, less than 100 nM and less than 100 nM.
Take `CC[C@]1(c2cccc(-c3ccncc3CO)c2)C2=CN=NC2NC2=C1C(=O)CC(C)(C)C2` (stereo partly specified) [US20250313563, Compound 945469]: the IC50 in assay [1] and in assay [2] was less than 100 nM throughout.
Consider `CCC1(c2cccc(-c3ccnc(OC)c3C)c2)C2=CN=NC2NC2=C1C(=O)CC(C)(C)C2` (stereo unspecified) [US20250313563, Compound 932628], for which the half-inhibitory concentration (IC50) in assay [1] was 100 to 1000 nM; in assay [2] it was less than 100 nM.
The corresponding values for `CC[C@@]1(c2cccc(C(F)(F)F)c2)C2=CN=NC2NC2=C1C(=O)N(c1ccc(C)cc1)CC2` (stereo partly specified) [US20250313563, Compound 949119] are greater than 5000 nM and 1000 to 5000 nM.
On to `CC1(C)CC(=O)C2=C(C1)NC1=C(CN=N1)C21CN(S(=O)(=O)c2ccc(F)cc2)C1` [US20250313563, Compound 917144], for which the concentration for half-maximal inhibition (IC50) in assay [1] and in assay [2] was less than 100 nM throughout.
In the case of `CC[C@]1(c2cccc(S(=O)(=O)C3CC3)c2)C2=C(CC(C)(C)NC2=O)NC2=C1C(C(F)(F)F)N=N2` (stereo partly specified) [US20250313563, Compound 948771], the half-inhibitory concentration (IC50) is < 100 nM and 100 to 1000 nM in assay [1]; less than 100 nM in assay [2].
For the molecule `CC1(C)CC(=O)C2=C(C1)NC1=C(CN=N1)C21CN(S(=O)(=O)c2cccnc2)C1` [US20250313563, Compound 913265], the IC50 in assay [1] and in assay [2] was greater than 5000 nM each time.
With `CCC1(c2cccc(-c3cn(C)nc3C(C)C)c2)C2=C(CC(C)(C)CC2=O)NC2N=NC(C)=C21` (stereo unspecified) [US20250313563, Compound 883998], the IC50 is 100 to 1000 nM in assay [1] and less than 100 nM in assay [2].
